Laboratory results as given in patent US8951972B2, “FGFR1 extracellular domain combination therapies for lung cancer” (Five Prime Therapeutics, Inc., priority 2010, dated 2015).

Legend:
[1] = tested on: A549 Non-Small Cell Lung Cancer (NSCLC) Xenograft; test: A549 non-small cell lung cancer (NSCLC) xenograft model, tumor volume; type: in vivo, SCID mice
Description: Six weeks old female SCID mice were purchased from Charles River Laboratories (Wilmington, Mass.) and were acclimated for 1 week before the start of the study. […] The cells were implanted subcutaneously over the right flank of the mice at 5×10^6 cells/100 μl/mouse. One day after tumor implantation, mice were randomized according to body weight at 10 mice per group.
The tumor volume and body weight of the mice were monitored twice a week throughout each study.
The tumor volume of each group of mice at the end of each study was analyzed by one-way ANOVA followed by Tukey's test.
Cisplatin was purchased from Sigma-Aldrich (St. Louis, Mo.; Cat. No. P4394), formulated in 0.9% saline, and administered i.p. at 3.5 mg/kg ([…]) once per week for six weeks. Saline was used as negative control and was administered i.p. at 100 μl per mouse twice a week for six weeks.
On day 42, when the average tumor volume in the vehicle group reached 1300 mm^3, the mice were euthanized by isoflurane inhalation and cervical dislocation.
FGFR1-ECD.339-Fc was formulated in 0.9% Saline for Injection USP at 3 mg/ml. […] FGFR1-ECD.339-Fc was administered intraperitoneally (i.p.) at 15 mg/kg twice per week for 5 weeks. Paclitaxel was administered i.p. at 18 mg/kg on days 8, 12, and 15.
When the average tumor volume in vehicle control group reached ˜500 mm^3, the mice were euthanized by isoflurane inhalation and cervical dislocation.
FGFR1-ECD.339-Fc was formulated in 0.9% Saline for Injection USP at 3 mg/ml. 5-FU was purchased from Sigma-Aldrich (St. Louis, Mo.; Cat. No. F6627) and was initially dissolved in dimethyl sulfoxide (DMSO, Sigma-Aldrich, St. Louis, Mo.; Cat. No. D8418-50) at the concentration of 50 mg/ml as a stock solution. The stock solution was further diluted in 0.9% Sodium Chloride Injection USP to 6.6 mg/ml (for 33 mg/kg dosing). FGFR1-ECD.339-Fc was administered intraperitoneally (i.p.) at 15 mg/kg twice per week for four weeks. 5-FU was administered i.p. at 33 mg/kg twice a week for three weeks.
Mice were euthanized on day 31 by isoflurane inhalation and cervical dislocation.
FGFR1-ECD.339-Fc was formulated in PBS at 3 mg/ml and administered intraperitoneally (i.p.) at 15 mg/kg (300 μg/100 μl/mouse) twice a week for four weeks. Docetaxel was administered i.p. at 3 mg/kg or 10 mg/kg twice per week for four weeks.
Mice in the albumin control group were euthanized on day 32 by isoflurane inhalation and cervical dislocation when the average tumor volume in the group reached 1000 mm^3.

[2] = tested on: Colo205 Colon Cancer Xenograft; test: Colo205 colon cancer xenograft model, tumor volume; type: in vivo, SCID mice
Description: Cells were resuspended in a solution of 50%/v PBS and 50%/v Matrigel at a concentration of 25 million cells/ml. Resuspended cells were kept on ice until implantation. […] On day 0, 2.5 million cells/100 μl were implanted over the right flank of the each mouse using a 27G1/2 needle. One day after tumor implantation, the mice were randomized according to the body weight.
Leucovorin (LV) was also purchased from Sigma-Aldrich (Cat. No. F8259) and was formulated in 0.9% Sodium Chloride Injection USP at 2 mg/ml (for 10 mg/kg dosing), to 4 mg/ml (for 20 mg/kg dosing), and to 6 mg/ml (for 30 mg/kg dosing).
In the first experiment, FGFR1-ECD.339-Fc was combined with three different concentrations of 5-FU/leucovorin. In the second experiment, FGFR1-ECD.339-Fc was combined with either bevacizumab or 5-FU/leucovorin, or both. The double line separates the groups from the two experiments.
When the average tumor volume in a group was near 600 mm^3, the mice in that group were euthanized by isoflurane inhalation and cervical dislocation.
The order of effectiveness of the various treatments was evaluated two ways: 1) the average tumor volume in each group on a single time point (day); and 2) time for the average tumor volume in each group to reach 500 mm^3 (see the dotted line in FIG. 11E).
Leucovorin was also purchased from Sigma-Aldrich (Cat. No. F8259) and was formulated in 0.9% Sodium Chloride Injection USP at 2 mg/ml (for 10 mg/kg dosing).
5-FU and leucovorin were each administered i.p. at 10 mg/kg daily for five days. Oxaliplatin was administered i.p. at 5 mg/kg, 10 mg/kg, or 15 mg/kg in one dose on day 1.
Mice were euthanized on day 28 by isoflurane inhalation and cervical dislocation.

[3] = tested on: A549 Non-Small Cell Lung Cancer (NSCLC) Xenograft; test: A549 non-small cell lung cancer (NSCLC) xenograft model, tumor volume; type: in vivo, SCID mice; settings: day 28; FGFR1-ECD.339-Fc 15 mg/kg and carboplatin 25 mg/kg i.p. 2x/wk from day 7 x 3 wks; paclitaxel 30 mg/kg i.p. 2x/wk from day 8 x 3 wks
[4] = tested on: Colo205 Colon Cancer Xenograft; test: Colo205 colon cancer xenograft model, tumor volume; type: in vivo, SCID mice; settings: day 17; FGFR1-ECD.339-Fc 15 mg/kg i.p. 2x/wk x 4 wks; 5-FU and leucovorin 10 mg/kg each i.p. daily x 5 days; oxaliplatin 15 mg/kg twice per week
[5] = tested on: JIMT-1 Breast Cancer Xenograft; test: JIMT-1 breast cancer xenograft model, tumor volume; settings: Day 21; FGFR1-ECD.339-Fc 15 mg/kg i.p. 2x/wk; doxorubicin 0.5 mg/kg 1x/wk; paclitaxel 30 mg/kg 2x/wk; each x 5 wks from day 7
Description: Six week old female SCID mice were purchased from Charles River Laboratories (Wilmington, Mass.) and were acclimated for 1 week before the start of the study. […] The cells were cultured for ten passages in DMEM+10% FBS, 1% L-glutamine, and 1% penicillin/streptomycin at 37° C. in a humidified atmosphere with 5% CO2. When the cultured cells reached 85-90% confluence, cells were harvested and resuspended in cold Ca^2+ and Mg^2+ free phosphate buffered saline (PBS) containing 50% Matrigel at 5×10^7 cells per milliliter. The cells were implanted subcutaneously over the right flank of the mice at 5×10^6 cells/100 μl/mouse. One day after tumor implantation, mice were randomized according to body weight at 10 mice per group.
FGFR1-ECD.339-Fc was formulated in 0.9% Saline for Injection USP at 3 mg/ml and administered intraperitoneally (i.p.) at 15 mg/kg (300 μg/100 μl/mouse) twice per week for five weeks beginning on day 7. […] Paclitaxel was administered at 30 mg/kg (60 μg/200 μL per mouse) twice per week for five weeks beginning on day 7.
The tumor volume and body weight of the mice were monitored twice a week throughout the study.
Mice were euthanized on day 42 by isoflurane inhalation and cervical dislocation.

[6] = day 42, FGFR1-ECD.339-Fc 20 mg/kg i.p. 2x/wk x 6 wks, cisplatin 3.5 mg/kg i.p. 1x/wk x 6 wks
[7] = day 24, FGFR1-ECD.339-Fc 15 mg/kg i.p. 3x/wk x 4 wks, bevacizumab 1 mg/kg i.p. 2x/wk x 4 wks, 5-Fu/LV 10 mg/kg each i.p. q.d. x 5 days

## FGFR1-ECD.339-Fc: human FGFR1 extracellular domain ending at amino acid 339 fused to an Fc; SEQ ID NO: 6 (mature form)
[1]; day 31, FGFR1-ECD.339-Fc 15 mg/kg i.p. 2x/wk x 4 wks, 5-FU 33 mg/kg i.p. 2x/wk x 3 wks
  Fractional tumor volume (FTV), each treatment alone: 0.84
[1]; day 31, FGFR1-ECD.339-Fc 15 mg/kg i.p. 2x/wk x 5 wks, paclitaxel 18 mg/kg i.p. days 8, 12, 15
  Fractional tumor volume (FTV), each treatment alone: 0.84
[1]; day 32, FGFR1-ECD.339-Fc 15 mg/kg i.p. 2x/wk x 4 wks, docetaxel 3 mg/kg i.p. 2x/wk x 4 wks
  Fractional tumor volume (FTV), each treatment alone: 0.54
[1]; day 32, FGFR1-ECD.339-Fc 15 mg/kg i.p. 2x/wk x 4 wks, docetaxel 10 mg/kg i.p. 2x/wk x 4 wks
  Fractional tumor volume (FTV), each treatment alone: 0.54
[1]; day 38, FGFR1-ECD.339-Fc 15 mg/kg i.p. 2x/wk x 5 wks, paclitaxel 18 mg/kg i.p. days 8, 12, 15
  Fractional tumor volume (FTV), each treatment alone: 0.89
[1]; day 39, FGFR1-ECD.339-Fc 15 mg/kg i.p. 2x/wk (start day 1), vincristine 1 mg/kg i.p. days 8, 15, 22
  Fractional tumor volume (FTV), each treatment alone: 0.50
[1]; [6]
  Mean Tumor volume mm^3(±SD): 807 (±431) mm^3
  Tumor growth inhibition (%): 39%
[1]; day 42, FGFR1-ECD.339-Fc 20 mg/kg, cisplatin 3.5 mg/kg
  Fractional tumor volume (FTV) relative to control, each treatment alone: 0.60
[1]; day 46, FGFR1-ECD.339-Fc 15 mg/kg i.p. 2x/wk (start day 1), vincristine 1 mg/kg i.p. days 8, 15, 22
  Fractional tumor volume (FTV), each treatment alone: 0.40
[1]; day 70, FGFR1-ECD.339-Fc 20 mg/kg i.p. 2x/wk (start day 19), vincristine 1.5 mg/kg i.p. days 27, 34, 41
  Fractional tumor volume (FTV), each treatment alone: 0.71
[2]; Day 16, FGFR1-ECD.339-Fc 15 mg/kg i.p. 3x/wk x 4 wks, 5-FU/LV 10 mg/kg each i.p. q.d. x 5 days
  Fractional tumor volume (FTV), each treatment alone: 0.76
[2]; Day 16, FGFR1-ECD.339-Fc 15 mg/kg i.p. 3x/wk x 4 wks, 5-FU/LV 20 mg/kg each i.p. q.d. x 5 days
  Fractional tumor volume (FTV), each treatment alone: 0.76
[2]; Day 16, FGFR1-ECD.339-Fc 15 mg/kg i.p. 3x/wk x 4 wks, 5-FU/LV 30 mg/kg each i.p. q.d. x 5 days
  Fractional tumor volume (FTV), each treatment alone: 0.76
[2]; Day 24, FGFR1-ECD.339-Fc 15 mg/kg i.p. 3x/wk x 4 wks, bevacizumab 1 mg/kg i.p. 2x/wk x 4 wks, 5-Fu/LV 10 mg/kg each q.d. x 5 days
  Fractional tumor volume (FTV), each treatment alone: 0.73
[2]; by average tumor volume on a single day and by time for average tumor volume to reach 500 mm^3 (FIG. 11E), value gives the next-ranked group
  Order of antitumor effect of the treatment groups: >vehicle
[2]; day 17, FGFR1-ECD.339-Fc 15 mg/kg i.p. 2x/wk x 4 wks, 5-FU and leucovorin 10 mg/kg each i.p. daily x 5 days, oxaliplatin 5 mg/kg i.p. one dose day 1
  Fractional tumor volume (FTV), each treatment alone: 0.77
[2]; day 17, FGFR1-ECD.339-Fc 15 mg/kg i.p. 2x/wk x 4 wks, 5-FU and leucovorin 10 mg/kg each i.p. daily x 5 days, oxaliplatin 10 mg/kg i.p. one dose day 1
  Fractional tumor volume (FTV), each treatment alone: 0.77
[2]; [7]
  Mean Tumor volume mm^3(±SD): 509 (±144) mm^3
  Tumor growth inhibition (%): 26%
[3]
  Fractional tumor volume (FTV), each treatment alone: 0.58
[4]
  Fractional tumor volume (FTV), each treatment alone: 0.77
[5]
  Fractional tumor volume (FTV), each treatment alone: 0.93
